Experimental data as given in ChEMBL document CHEMBL3885861, “Open TG-GATES”.

Species on record: Rattus norvegicus
Assay: Open TG-GATES - Regimen: Single
Type: toxicity, organism-based, Sprague-Dawley
Parameters: regimen Single, gender Male, age 6 weeks
Conditions: in vivo, po, 0 mg/kg, route gavage, dose level Control; for APTT / Bas / Eos / Fbg / Hb / Ht / Lym / MCH / MCHC / MCV / Mono / Neu / PT / RBC / Ret / WBC / Plat: tissue Blood; for KIDNEY_L / KIDNEY_R / KIDNEY_TOTAL: tissue Kidney; for LIVER: tissue Liver

SMILES: C[C@H](CS)C(=O)N1CCC[C@H]1C(=O)O [CAPTOPRIL]
- TERMINAL_BW (3 h): 220.9 g
- APTT (3 h): 16.4 s
- Bas (3 h): 0%
- Eos (3 h): 1.2%
- Fbg (3 h): 204.8 mg/dL
- Hb (3 h): 13.1 g/dL
- Ht (3 h): 39.7%
- Lym (3 h): 79.2%
- MCH (3 h): 21.4 pg
- MCHC (3 h): 33.1%
- MCV (3 h): 64.5 fL
- Mono (3 h): 6%
- Neu (3 h): 14%
- PT (3 h): 11.7 s
- RBC (3 h): 615.2 x10_4/ul
- Ret (3 h): 7.5%
- WBC (3 h): 110.3 x10_2/uL
- KIDNEY_L (3 h): 0.9 g
- KIDNEY_R (3 h): 1 g
- KIDNEY_TOTAL (3 h): 1.9 g
- ALP (3 h, tissue Plasma): 902.4 IU/L
- ALT (3 h, tissue Plasma): 34 IU/L
- AST (3 h, tissue Plasma): 65.2 IU/L
- BUN (3 h, tissue Plasma): 13 mg/dL
- CRE (3 h, tissue Plasma): 0.5 mg/dL
- DBIL (3 h, tissue Plasma): 0.018 mg/dL
- GLC (3 h, tissue Plasma): 193.6 mg/dL
- IP (3 h, tissue Plasma): 9.9 mg/dL
- K (3 h, tissue Plasma): 5.1 meq/L
- LDH (3 h, tissue Plasma): 84.6 IU/L
- Na (3 h, tissue Plasma): 137.6 meq/L
- PL (3 h, tissue Plasma): 127.6 mg/dL
- RALB (3 h, tissue Plasma): 3.7 g/dL
- TBIL (3 h, tissue Plasma): 0.4 mg/dL
- TC (3 h, tissue Plasma): 70.8 mg/dL
- TG (3 h, tissue Plasma): 42.6 mg/dL
- TP (3 h, tissue Plasma): 5.4 g/dL
- gamma-GTP (3 h, tissue Plasma): 1.6 IU/L
- TERMINAL_BW (6 h): 220.4 g
- APTT (6 h): 15.7 s
- Bas (6 h): 0%
- Eos (6 h): 1.2%
- Hb (6 h): 13.5 g/dL
- Ht (6 h): 41.1%
- Lym (6 h): 76.8%
- MCH (6 h): 21.1 pg
- MCHC (6 h): 32.9%
- MCV (6 h): 64.3 fL
- Mono (6 h): 6.2%
- Neu (6 h): 16.2%
- PT (6 h): 11.8 s
- Plat (6 h): 118.9 x10_4/uL
- RBC (6 h): 639.6 x10_4/ul
- Ret (6 h): 7.5%
- WBC (6 h): 124.4 x10_2/uL
- KIDNEY_L (6 h): 1 g
- KIDNEY_R (6 h): 1 g
- KIDNEY_TOTAL (6 h): 2 g
- ALP (6 h, tissue Plasma): 725.4 IU/L
- ALT (6 h, tissue Plasma): 31.2 IU/L
- AST (6 h, tissue Plasma): 58.4 IU/L
- BUN (6 h, tissue Plasma): 11.8 mg/dL
- CRE (6 h, tissue Plasma): 0.6 mg/dL
- DBIL (6 h, tissue Plasma): 0.012 mg/dL
- GLC (6 h, tissue Plasma): 198.2 mg/dL
- K (6 h, tissue Plasma): 4.7 meq/L
- LDH (6 h, tissue Plasma): 75.6 IU/L
- Na (6 h, tissue Plasma): 139 meq/L
- PL (6 h, tissue Plasma): 135.6 mg/dL
- RALB (6 h, tissue Plasma): 3.6 g/dL
- TBIL (6 h, tissue Plasma): 0.3 mg/dL
- TC (6 h, tissue Plasma): 76.8 mg/dL
- TG (6 h, tissue Plasma): 60 mg/dL
- TP (6 h, tissue Plasma): 5.3 g/dL
- gamma-GTP (6 h, tissue Plasma): 1.4 IU/L
- TERMINAL_BW (9 h): 222.4 g
- APTT (9 h): 16.3 s
- Bas (9 h): 0%
- Eos (9 h): 1%
- Fbg (9 h): 207.2 mg/dL
- Hb (9 h): 12.9 g/dL
- Ht (9 h): 39.1%
- Lym (9 h): 79.8%
- MCH (9 h): 21.2 pg
- MCHC (9 h): 33%
- MCV (9 h): 64.5 fL
- Mono (9 h): 5.4%
- Neu (9 h): 14%
- PT (9 h): 12.2 s
- Plat (9 h): 118.8 x10_4/uL
- RBC (9 h): 607 x10_4/ul
- Ret (9 h): 7.9%
- WBC (9 h): 89.1 x10_2/uL
- KIDNEY_L (9 h): 1 g
- KIDNEY_R (9 h): 1 g
- KIDNEY_TOTAL (9 h): 2.1 g
- LIVER (9 h): 9.6 g
- ALP (9 h, tissue Plasma): 868 IU/L
- ALT (9 h, tissue Plasma): 33.4 IU/L
- AST (9 h, tissue Plasma): 60.2 IU/L
- BUN (9 h, tissue Plasma): 13.4 mg/dL
- CRE (9 h, tissue Plasma): 0.4 mg/dL
- DBIL (9 h, tissue Plasma): 0.078 mg/dL
- GLC (9 h, tissue Plasma): 200 mg/dL
- IP (9 h, tissue Plasma): 10 mg/dL
- K (9 h, tissue Plasma): 4.9 meq/L
- LDH (9 h, tissue Plasma): 53.8 IU/L
- Na (9 h, tissue Plasma): 137.8 meq/L
- PL (9 h, tissue Plasma): 132.2 mg/dL
- RALB (9 h, tissue Plasma): 3.6 g/dL
- TBIL (9 h, tissue Plasma): 0.4 mg/dL
- TC (9 h, tissue Plasma): 68.8 mg/dL
- TG (9 h, tissue Plasma): 64.8 mg/dL
- TP (9 h, tissue Plasma): 5.4 g/dL
- gamma-GTP (9 h, tissue Plasma): 2 IU/L
- TERMINAL_BW (24 h): 235.3 g
- APTT (24 h): 15.7 s
- Bas (24 h): 0%
- Eos (24 h): 1.4%
- Hb (24 h): 13.4 g/dL
- Ht (24 h): 40.3%
- Lym (24 h): 77.6%
- MCH (24 h): 21.7 pg
- MCHC (24 h): 33.1%
- MCV (24 h): 65.6 fL
- Mono (24 h): 5.8%
- Neu (24 h): 15.4%
- PT (24 h): 11.4 s
- Plat (24 h): 115.5 x10_4/uL
- RBC (24 h): 614.6 x10_4/ul
- Ret (24 h): 9.1%
- WBC (24 h): 114 x10_2/uL
- KIDNEY_L (24 h): 1 g
- KIDNEY_R (24 h): 1 g
- KIDNEY_TOTAL (24 h): 2 g
- LIVER (24 h): 11.7 g
- ALP (24 h, tissue Plasma): 943.6 IU/L
- ALT (24 h, tissue Plasma): 39 IU/L
- AST (24 h, tissue Plasma): 65.2 IU/L
- BUN (24 h, tissue Plasma): 18.2 mg/dL
- CRE (24 h, tissue Plasma): 0.6 mg/dL
- Ca (24 h, tissue Plasma): 11 mg/dL
- DBIL (24 h, tissue Plasma): 0.082 mg/dL
- GLC (24 h, tissue Plasma): 199.8 mg/dL
- IP (24 h, tissue Plasma): 8.5 mg/dL
- K (24 h, tissue Plasma): 4.6 meq/L
- Na (24 h, tissue Plasma): 140.2 meq/L
- PL (24 h, tissue Plasma): 146 mg/dL
- RALB (24 h, tissue Plasma): 3.9 g/dL
- TBIL (24 h, tissue Plasma): 0.3 mg/dL
- TC (24 h, tissue Plasma): 76.8 mg/dL
- TG (24 h, tissue Plasma): 95.8 mg/dL
- TP (24 h, tissue Plasma): 5.7 g/dL
